Data set [1] concerns the target Tyrosine-protein kinase JAK1 (Homo sapiens, UniProt P23458). Put plainly: Inhibition of JAK1 (unknown origin) using Kinase/Tyr 6 peptide as substrate incubated for 1 hrs in presence of ATP by fluorescence microplate reader analysis.
Data set [2] deals with T1, Tyrosine-protein kinase JAK3 (Homo sapiens, UniProt P52333).
T1 sequence (P52333 whole entry): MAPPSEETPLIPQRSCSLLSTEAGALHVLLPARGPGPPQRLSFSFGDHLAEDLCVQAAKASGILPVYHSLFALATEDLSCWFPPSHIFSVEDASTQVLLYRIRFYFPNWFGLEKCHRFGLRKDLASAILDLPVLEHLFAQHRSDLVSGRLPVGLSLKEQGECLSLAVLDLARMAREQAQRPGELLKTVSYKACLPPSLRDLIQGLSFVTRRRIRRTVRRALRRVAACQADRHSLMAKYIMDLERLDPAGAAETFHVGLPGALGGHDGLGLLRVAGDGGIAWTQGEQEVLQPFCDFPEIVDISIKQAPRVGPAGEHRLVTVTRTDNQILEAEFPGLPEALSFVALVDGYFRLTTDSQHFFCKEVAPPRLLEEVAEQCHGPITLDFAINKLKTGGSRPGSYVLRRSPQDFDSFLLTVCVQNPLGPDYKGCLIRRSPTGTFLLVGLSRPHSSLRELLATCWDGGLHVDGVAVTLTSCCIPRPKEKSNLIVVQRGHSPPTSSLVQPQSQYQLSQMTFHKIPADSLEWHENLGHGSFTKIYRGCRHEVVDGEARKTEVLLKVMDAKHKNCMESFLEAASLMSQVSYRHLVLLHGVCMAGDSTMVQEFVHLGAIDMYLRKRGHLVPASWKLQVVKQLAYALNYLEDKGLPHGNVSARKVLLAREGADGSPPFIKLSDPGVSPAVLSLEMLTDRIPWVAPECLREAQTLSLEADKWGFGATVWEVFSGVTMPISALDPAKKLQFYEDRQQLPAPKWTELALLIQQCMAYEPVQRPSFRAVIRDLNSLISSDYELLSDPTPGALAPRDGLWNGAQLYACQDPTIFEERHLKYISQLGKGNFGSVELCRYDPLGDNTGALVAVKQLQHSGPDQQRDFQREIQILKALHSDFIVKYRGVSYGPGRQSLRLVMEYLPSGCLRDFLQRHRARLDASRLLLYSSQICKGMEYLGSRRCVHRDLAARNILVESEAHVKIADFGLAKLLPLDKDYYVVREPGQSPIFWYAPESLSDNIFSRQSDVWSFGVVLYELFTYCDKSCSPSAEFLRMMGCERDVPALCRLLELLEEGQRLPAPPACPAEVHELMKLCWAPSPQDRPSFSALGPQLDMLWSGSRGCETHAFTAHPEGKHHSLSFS
Description: Inhibition of JAK3 (unknown origin) using Kinase/Tyr 6 peptide as substrate incubated for 1 hrs in presence of ATP by fluorescence microplate reader analysis

Data set [3] has as its target Tyrosine-protein kinase JAK2 (Homo sapiens, UniProt O60674).
Description: Inhibition of JAK2 (unknown origin) using Kinase/Tyr 6 peptide as substrate incubated for 1 hrs in presence of ATP by fluorescence microplate reader analysis
In data set [4] the test system is Mus musculus. Put plainly: Antiinflammatory activity in DSS-induced acute colitis C57BL/6 mouse model assessed as reduction in lamina propria damage in colon by measuring histopathological score at 100 mg/kg, po by H and E staining based analysis. It counts as functional, organism-based.
Data set [5] concerns Mus musculus. Put plainly: Anti-inflammatory activity in TNBS induced IBD BALB/c mouse model assessed as reduction in weight by measuring disease activity index score at 100 mg/kg via oral gavage administered daily for 12 days measured daily. In kind it is functional, organism-based. The settings on record: time 12.0 day.
Data set [6] relates to Mus musculus. Put plainly: Antiinflammatory activity in DSS-induced acute colitis C57BL/6 mouse model assessed as reduction in colon villi integrity in colon by measuring histopathological score at 100 mg/kg, po by H and E staining based analysis. It counts as functional, organism-based.
Data set [7] deals with Mus musculus. Put plainly: Antiinflammatory activity in DSS-induced acute colitis C57BL/6 mouse model assessed as reduction in number of goblet cells in colon by measuring histopathological score at 100 mg/kg, po by H and E staining based analysis. It counts as functional, organism-based.
The test system of data set [8] is Mus musculus. The experiment in a line: Antiinflammatory activity in DSS-induced acute colitis C57BL/6 mouse model assessed as reduction in intestinal edema in colon by measuring histopathological score at 100 mg/kg, po by H and E staining based analysis. In kind it is functional, organism-based.
The subject of data set [9] is Mus musculus. The experiment in a line: Anti-inflammatory activity in TNBS induced IBD BALB/c mouse model assessed as reduction in stool softness by measuring disease activity index score at 100 mg/kg via oral gavage administered daily for 12 days. It counts as functional, organism-based. As to conditions: time 12.0 day.
Data set [10] concerns Mus musculus. Put plainly: Anti-inflammatory activity in TNBS induced IBD BALB/c mouse model assessed as reduction in bloody stool by measuring disease activity index score at 100 mg/kg via oral gavage administered daily for 12 days. The settings on record: time 12.0 day. It counts as functional, organism-based.
For data set [11], the system named is Mus musculus. Put plainly: Antiinflammatory activity in DSS-induced acute enteritis C57BL mouse model assessed as suppression of DSS induced weight loss at 100 mg/kg, po administered daily and measured upto 11 days relative to control. It counts as functional. As to conditions: time <= 11 day.
In data set [12] the test system is Mus musculus. Put plainly: Antiinflammatory activity in DSS-induced acute colitis C57BL/6 mouse model assessed as reduction in inflammatory cell infiltration in colon by measuring histopathological score at 100 mg/kg, po by H and E staining based analysis. In kind it is functional, organism-based.
Data set [13] has as its target Nuclear factor NF-kappa-B complex (Homo sapiens, UniProt P19838+Q00653+Q04206). Put plainly: Inhibition of NF kappa B activation (unknown origin). In kind it is protein-complex assay.
Data set [14] is described as follows: Cytotoxicity against human THP1-Dual cells assessed as inhibition of cell growth measured after 24 hrs by CCK-8 method. In kind it is toxicity, cell-based. On the technique in general: Formazan colour is commonly taken as a measure of viable cells.

IC50 and Activity data for 27 compounds are collected here from ChEMBL document CHEMBL5113519, “Discovery of Novel Imidazo[4,5-c]quinoline Derivatives to Treat Inflammatory Bowel Disease (IBD) by Inhibiting Multiple Proinflammatory Signaling Pathways and Restoring Intestinal Homeostasis” (J Med Chem, 2022).

For orientation: IC50 means the concentration that gives 50% inhibition.

The structures appear in SMILES notation. Active and inactive are the calls of the source. No cut-off for these calls is given here.

Chain of Tyrosine-protein kinase JAK1 (P23458 whole entry): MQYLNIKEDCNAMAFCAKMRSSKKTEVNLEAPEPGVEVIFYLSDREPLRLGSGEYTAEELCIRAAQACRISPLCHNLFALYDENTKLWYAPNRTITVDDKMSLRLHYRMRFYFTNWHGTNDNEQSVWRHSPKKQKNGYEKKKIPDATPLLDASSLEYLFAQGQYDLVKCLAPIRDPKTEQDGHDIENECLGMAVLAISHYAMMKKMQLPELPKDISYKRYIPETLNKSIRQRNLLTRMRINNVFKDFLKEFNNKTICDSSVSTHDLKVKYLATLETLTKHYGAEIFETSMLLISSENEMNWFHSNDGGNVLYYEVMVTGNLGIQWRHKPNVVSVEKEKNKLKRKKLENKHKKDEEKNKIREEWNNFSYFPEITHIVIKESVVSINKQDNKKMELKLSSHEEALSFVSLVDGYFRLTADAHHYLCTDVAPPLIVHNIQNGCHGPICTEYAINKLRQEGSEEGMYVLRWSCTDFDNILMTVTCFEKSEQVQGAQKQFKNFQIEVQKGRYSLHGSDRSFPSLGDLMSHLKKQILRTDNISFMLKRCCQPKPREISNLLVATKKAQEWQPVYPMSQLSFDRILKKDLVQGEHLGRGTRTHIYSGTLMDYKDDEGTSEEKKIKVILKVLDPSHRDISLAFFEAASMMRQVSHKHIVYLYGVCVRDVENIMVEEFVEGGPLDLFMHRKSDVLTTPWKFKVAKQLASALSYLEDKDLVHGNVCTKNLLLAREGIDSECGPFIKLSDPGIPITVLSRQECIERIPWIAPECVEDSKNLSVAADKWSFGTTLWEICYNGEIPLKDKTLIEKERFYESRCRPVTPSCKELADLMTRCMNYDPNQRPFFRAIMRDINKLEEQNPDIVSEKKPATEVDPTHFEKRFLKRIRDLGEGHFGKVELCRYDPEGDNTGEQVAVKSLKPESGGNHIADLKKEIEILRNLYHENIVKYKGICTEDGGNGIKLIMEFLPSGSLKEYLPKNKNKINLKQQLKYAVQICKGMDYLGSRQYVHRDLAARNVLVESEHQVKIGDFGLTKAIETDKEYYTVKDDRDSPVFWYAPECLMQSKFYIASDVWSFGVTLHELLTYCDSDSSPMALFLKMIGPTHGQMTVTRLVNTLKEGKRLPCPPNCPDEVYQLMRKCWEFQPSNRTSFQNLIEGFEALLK
Chain of Tyrosine-protein kinase JAK2 (O60674 whole entry): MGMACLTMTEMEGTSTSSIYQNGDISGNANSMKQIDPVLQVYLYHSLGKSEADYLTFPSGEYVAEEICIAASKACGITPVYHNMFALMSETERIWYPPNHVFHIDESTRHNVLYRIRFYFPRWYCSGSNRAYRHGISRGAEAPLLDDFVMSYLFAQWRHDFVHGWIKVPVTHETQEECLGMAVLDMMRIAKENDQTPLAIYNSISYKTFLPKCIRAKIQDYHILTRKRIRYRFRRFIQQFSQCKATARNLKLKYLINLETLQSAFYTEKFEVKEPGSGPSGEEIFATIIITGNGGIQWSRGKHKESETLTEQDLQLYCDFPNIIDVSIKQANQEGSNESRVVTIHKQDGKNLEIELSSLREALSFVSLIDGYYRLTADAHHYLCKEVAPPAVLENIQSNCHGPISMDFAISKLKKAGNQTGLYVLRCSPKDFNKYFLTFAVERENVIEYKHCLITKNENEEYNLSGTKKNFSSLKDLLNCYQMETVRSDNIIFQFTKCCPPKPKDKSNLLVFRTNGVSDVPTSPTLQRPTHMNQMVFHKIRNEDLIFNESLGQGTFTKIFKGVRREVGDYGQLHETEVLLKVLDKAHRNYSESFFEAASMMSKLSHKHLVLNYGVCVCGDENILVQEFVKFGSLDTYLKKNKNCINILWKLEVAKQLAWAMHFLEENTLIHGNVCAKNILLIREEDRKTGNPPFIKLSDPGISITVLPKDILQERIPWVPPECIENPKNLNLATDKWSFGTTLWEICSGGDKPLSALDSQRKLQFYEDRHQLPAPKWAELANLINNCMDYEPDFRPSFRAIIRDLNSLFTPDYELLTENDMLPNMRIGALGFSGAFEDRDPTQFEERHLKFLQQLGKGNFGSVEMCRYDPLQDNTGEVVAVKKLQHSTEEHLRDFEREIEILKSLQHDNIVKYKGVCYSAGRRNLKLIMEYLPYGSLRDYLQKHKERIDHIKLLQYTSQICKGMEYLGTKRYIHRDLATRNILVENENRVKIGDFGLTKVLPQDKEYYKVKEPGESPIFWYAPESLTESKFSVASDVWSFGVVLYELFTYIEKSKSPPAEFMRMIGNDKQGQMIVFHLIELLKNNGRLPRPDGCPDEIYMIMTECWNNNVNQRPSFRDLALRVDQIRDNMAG
Chain of Nuclear factor NF-kappa-B complex (P19838 1-433 limits assumed): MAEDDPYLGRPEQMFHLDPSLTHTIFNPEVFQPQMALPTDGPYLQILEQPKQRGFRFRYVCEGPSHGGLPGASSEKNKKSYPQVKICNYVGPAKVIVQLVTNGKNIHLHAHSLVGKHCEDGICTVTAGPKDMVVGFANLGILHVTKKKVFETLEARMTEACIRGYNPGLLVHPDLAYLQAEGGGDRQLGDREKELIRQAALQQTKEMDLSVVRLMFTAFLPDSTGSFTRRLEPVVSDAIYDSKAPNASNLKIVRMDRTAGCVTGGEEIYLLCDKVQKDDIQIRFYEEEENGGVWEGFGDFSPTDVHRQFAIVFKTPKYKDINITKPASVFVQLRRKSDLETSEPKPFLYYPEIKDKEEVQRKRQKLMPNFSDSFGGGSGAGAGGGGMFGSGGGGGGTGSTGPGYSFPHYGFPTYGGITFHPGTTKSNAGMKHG
Chain of Nuclear factor NF-kappa-B complex (Q00653 1-454 limits assumed): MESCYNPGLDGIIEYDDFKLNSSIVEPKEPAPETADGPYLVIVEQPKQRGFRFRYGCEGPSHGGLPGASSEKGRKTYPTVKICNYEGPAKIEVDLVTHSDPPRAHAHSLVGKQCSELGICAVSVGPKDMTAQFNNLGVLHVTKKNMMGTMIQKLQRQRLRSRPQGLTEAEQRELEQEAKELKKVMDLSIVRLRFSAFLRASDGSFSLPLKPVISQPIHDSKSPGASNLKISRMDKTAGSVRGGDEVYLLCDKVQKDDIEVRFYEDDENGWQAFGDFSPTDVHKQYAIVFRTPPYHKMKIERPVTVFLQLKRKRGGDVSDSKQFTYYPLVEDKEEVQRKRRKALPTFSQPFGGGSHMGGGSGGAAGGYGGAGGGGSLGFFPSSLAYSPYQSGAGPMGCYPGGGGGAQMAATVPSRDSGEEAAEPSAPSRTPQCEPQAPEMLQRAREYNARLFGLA
Chain of Nuclear factor NF-kappa-B complex (Q04206 whole entry): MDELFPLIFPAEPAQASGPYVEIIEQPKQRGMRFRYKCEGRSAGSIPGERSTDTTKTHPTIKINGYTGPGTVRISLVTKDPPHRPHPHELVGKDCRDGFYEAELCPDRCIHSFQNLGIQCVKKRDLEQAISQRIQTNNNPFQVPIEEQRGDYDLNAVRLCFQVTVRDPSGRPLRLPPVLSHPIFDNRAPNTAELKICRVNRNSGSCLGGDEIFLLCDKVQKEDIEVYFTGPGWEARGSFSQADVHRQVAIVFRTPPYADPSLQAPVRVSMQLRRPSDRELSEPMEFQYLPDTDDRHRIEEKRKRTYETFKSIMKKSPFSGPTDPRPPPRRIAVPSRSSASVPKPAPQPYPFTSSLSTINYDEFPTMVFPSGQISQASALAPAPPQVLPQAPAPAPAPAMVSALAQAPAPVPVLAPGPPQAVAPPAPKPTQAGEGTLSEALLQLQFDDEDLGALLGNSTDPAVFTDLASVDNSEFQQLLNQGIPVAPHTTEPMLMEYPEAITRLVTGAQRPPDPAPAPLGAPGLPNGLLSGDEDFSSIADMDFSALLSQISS

`Cc1nc2cnc3ccc(-c4ccc(F)c(O)c4)cc3c2n1C1CCN(C)CC1`: the IC50 in [1] was above 500 nM.
With `Cc1nc2cnc3ccc(-c4ccc(O)cc4)cc3c2n1C1CCN(C)CC1`, the figures for the IC50 in data set [2] and in [1] were above 500 nM and 560 nM, respectively.
In the case of `Cc1cc(-c2ccc3ncc4nc(C)n(C5CCN(C)CC5)c4c3c2)cc(C)c1O`, the IC50 in data set [2] was above 500 nM; in data set [1], 100 nM.
On to `Cc1nc2cnc3ccc(-c4cc(Cl)c(O)c(Cl)c4)cc3c2n1[C@H]1CC[C@H](CO)CC1`, for which the values for the IC50 in [3], in [2] and in [1] were 12.6 nM, 15.4 nM and 7.2 nM, respectively.
In the case of `Cc1cc(-c2ccc3ncc4nc(C)n(C5CCN(C)CC5)c4c3c2)ccc1O`, the IC50 was above 500 nM in data set [2] and 435 nM in data set [1].
Take `Cc1nc2cnc3ccc(-c4cc(Cl)c(O)c(Cl)c4)cc3c2n1C1CCOCC1`: the results for the IC50 in data set [3], in data set [2] and in data set [1] were 22.6 nM, 20.8 nM and 6.8 nM, respectively.
On to `Cc1nc2cnc3ccc(-c4ccc(O)cc4Cl)cc3c2n1C1CCN(C)CC1`, for which the IC50 in data set [2] was above 500 nM; in data set [1], 386 nM.
As to `Cc1nc2cnc3ccc(-c4cc(Cl)c(O)c(Cl)c4)cc3c2n1[C@H]1CC[C@H](N(C)C)CC1`, the figures for the IC50 in [2] and in [1] were 63 nM and 16.7 nM, respectively.
For `Cc1nc2cnc3ccc(-c4cc(Cl)c(O)c(Cl)c4)cc3c2n1[C@H]1CCCN(C)C1`, in that order: 19.6 nM and 5.5 nM.
`Nc1ccc(O)c(C(=O)O)c1` [MESALAMINE]: the outcome in the data set with Mus musculus [4], in the data set with Mus musculus [5], in the data set on Mus musculus [6], in the data set on Mus musculus [7], in the data set on Mus musculus [8] and in the data set on Mus musculus [9] was Active. In addition, the outcome in the data set on Mus musculus [10] and in the data set with Mus musculus [12] was Active. In addition, the Activity in the data set with Mus musculus [11] was found to be 11.69%.
In the case of `Cc1nc2cnc3ccc(-c4ccc(O)c(C(F)(F)F)c4)cc3c2n1C1CCN(C)CC1`, the half-maximal inhibitory concentration (IC50) in data set [2] and in [1] was above 500 nM each time.
`COc1cc(-c2ccc3ncc4nc(C)n(C5CCN(C)CC5)c4c3c2)ccc1O`: the IC50 in data set [2] is above 500 nM; in data set [1], 776 nM.
Taken in the same sequence, the figures for `Cc1nc2cnc3ccc(-c4cc(Cl)c(O)c(Cl)c4)cc3c2n1[C@H]1CC[C@H](O)CC1` were 20.2 nM and 9.9 nM.
In the case of `Cc1nc2cnc3ccc(-c4cc(Cl)cc(Cl)c4)cc3c2n1C1CCN(C)CC1`, the IC50 in data set [2] and in data set [1] was above 500 nM throughout.
Turning to `Cc1nc2cnc3ccc(-c4ccc(N5CCOCC5)cc4)cc3c2n1C1CCN(C)CC1`, the IC50 in [1] was above 500 nM.
As for `Cc1nc2cnc3ccc(-c4ccc(O)c(Cl)c4)cc3c2n1C1CCN(C)CC1`, the values for the IC50 in data set [2] and in data set [1] were above 500 nM and 42.3 nM, respectively.
With `Cc1nc2cnc3ccc(-c4ccc(O)c(F)c4)cc3c2n1C1CCN(C)CC1`, the values for the 50% inhibitory concentration (IC50) in [3], in [2] and in data set [1] were above 500 nM, above 500 nM and 30 nM, respectively.
On to `Cc1nc2cnc3ccc(-c4cc(Cl)c(O)c(Cl)c4)cc3c2n1C1CCCN(C)C1` (stereo not drawn), for which the IC50 turned out to be 4.9 nM in [2] and 6.6 nM in data set [1].
Take `Cc1nc2cnc3ccc(-c4ccccc4O)cc3c2n1C1CCN(C)CC1`: in data set [1], the IC50 was above 500 nM.
Same read-out and setting: in the case of `Cc1nc2cnc3ccc(-c4ccc5c(c4)OCCO5)cc3c2n1C1CCN(C)CC1` it was above 500 nM.
Take `Cc1nc2cnc3ccc(-c4cc(F)c(O)c(Cl)c4)cc3c2n1C1CCN(C)CC1`: the IC50 in data set [3] was found to be 136 nM; in [2], 127 nM; in [1] it was 11.9 nM.
As for `O=C(c1ccccc1)c1ccc2nc(NC(=O)c3csc(C4CCN(c5ncnc6ccsc56)CC4)n3)[nH]c2c1`, the IC50 in data set [13] stood at 200 nM.
Consider `Cc1nc2cnc3ccc(-c4cc(F)c(O)c(F)c4)cc3c2n1C1CCN(C)CC1`, for which the IC50 in data set [3] was above 500 nM; in [2] it was above 500 nM; in data set [1], 19.4 nM.
Take `Cc1nc2cnc3ccc(-c4ccc(O)cc4F)cc3c2n1C1CCN(C)CC1`: the IC50 was above 500 nM in data set [2] and 237 nM in data set [1].
As to `Cc1nc2cnc3ccc(-c4cc(Cl)c(O)c(Cl)c4)cc3c2n1[C@@H]1CCCN(C)C1`, the half-inhibitory concentration (IC50) amounted to 13.5 nM in data set [3], 3.2 nM in data set [2] and 2.6 nM in [1]. Moreover, the IC50 at 24 h in [14] came to 2000 nM.
Take `Cc1nc2cnc3ccc(-c4ccc(O)c(C#N)c4)cc3c2n1C1CCN(C)CC1`: the results for the concentration for half-maximal inhibition (IC50) in data set [2] and in data set [1] were above 500 nM and 236 nM, respectively.
Taken in the same sequence, the figures for `Cc1nc2cnc3ccc(-c4cc(Cl)c(O)c(Cl)c4)cc3c2n1C1CCN(CN(C)C)CC1` were 62 nM and 7.4 nM.
